Source: US20110065675A1, “AZO DYE RELATED SMALL MOLECULE MODULATORS OF PROTEIN-PROTEIN INTERACTIONS” (University of Miami, priority 2008, published 2011)
pIC50: −log10 of the molar value. Read-outs that look alike come from different tables or passages of the source.

Experiments:
human TNF-R1/TNFα = human TNF-R1/TNFα (Homo sapiens, UniProt P01375+P19438); experiment: Specificity test: human TNF-R1/TNFα binding inhibition assay; settings: for pIC50: cell-free binding, read-out: Human TNFR1/TNFα IC50; for Human TNFR1/TNFα log IC50: log of IC50, cell-free binding
Source text: A main concern for the therapeutic applicability of these compounds and of small molecule PPI inhibitors in general is related to their ability to achieve some acceptable degree of selectivity/specificity for the PPI of interest. To identify compounds that show acceptable specificity for the CD40/CD154 system, their ability to inhibit the TNF-R1/TNF-α PPI was investigated since this is particularly relevant as CD154 is part of the TNF superfamily. The experimental setup used was very similar to the one described in Example 1, but using plate-coated TNF-R1 and TNF-α as ligand (with a corresponding anti-TNF-α mAb as positive control). The concentration of TNF-R1 and TNF-α used were 0.6 μg/mL and 0.02 μg/mL, respectively.

human CD40/CD154 = target: T1, human CD40/CD154 (Homo sapiens, UniProt P29965); experiment: Human CD40/CD154 binding inhibition assay (cell-free, plate-based); settings: for pIC50: read-out: Human CD40/CD154 IC50
T1 construct: CD154 (soluble human, FLAG-tagged, recombinant from Alexis Biochemicals; MW=18 kDa); purchased Alexis Biochemicals
T1 sequence (P29965 113-261 limits assumed): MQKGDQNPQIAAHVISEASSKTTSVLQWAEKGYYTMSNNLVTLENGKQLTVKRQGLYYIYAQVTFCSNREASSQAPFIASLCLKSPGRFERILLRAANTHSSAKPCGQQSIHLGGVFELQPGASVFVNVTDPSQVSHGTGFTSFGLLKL
Procedure: A 96-well plate-based cell-free in vitro binding inhibition assay, which is a modification of an assay described in U.S. Pat. No. 7,173,046, incorporated by reference in its entirety, has been developed and used for activity screening. Briefly, CD40 is coated at a preselected concentration, and binding of (FLAG-tagged) CD154 is measured by reacting with secondary antibody and using TMB liquid substrate system as a substrate for horseradish peroxidase for reading at 450 nm. The detailed procedure is as follows: Microtiter plates (Nunc F MaxiSorp) were coated with […] of CD40: Fc (human:Fc human, recombinant from Alexis Biochemicals; MW=54 kDa) diluted in PBS pH 7.2 at a preselected concentration of 0.3125 μg/mL. Plates were covered with plate sealer and stored overnight at 4° C. The liquid was removed from the plates and blotted dry. Plates were blocked by washing once with approx. 300 μL/well of Blocking Solution (PBS pH 7.2, 0.05% Tween-20, 1% BSA) and incubated with the same solution for 1 hour at room temperature (RT) or at 4° C. overnight. Coated plates were washed three times with Washing Solution (PBS pH 7.4, 0.05% Tween-20) and blotted dry. A preselected dilution of CD154 (soluble human, FLAG-tagged, recombinant from Alexis Biochemicals; MW=18 kDa) of 0.0087500875 μg/mL range was prepared in 100 mM HEPES, 0.005% BSA pH 7.2. Binding was carried out by adding 100 μL of this CD154 dilution/well and incubating at RT in the presence of test compounds (or blank as negative control). After incubation, the plates were washed with Washing Solution and blotted dry. Bound CD154 was detected with 200 μL/well of secondary antibody mAb ANTI-FLAG M2—Peroxidase Conjugate (anti-FLAG M2-peroxidase HRP conjugate; Sigma-Aldrich) diluted 1:40,000 in Washing Solution. After incubation, the plates were washed and blotted dry. 200 μL/well of the HR-Peroxidase substrate TMB (3,3′,5,5′-tetramethylbenzidine; Sigma-Aldrich) were added, and the plates were incubated for approximately 30 minutes in the dark. The reaction was stopped with 0.5 M H2SO4 and read at 450 nm. All conditions were tested in at least three independent experiments in duplicate or triplicate per plates. Data were normalized and fitted with standard log inhibitor vs. response models using GraphPad Prism 5 to establish median inhibitory ICso values.
A representative result using the monoclonal anti-human CD154 antibody (R&D Systems, monoclonal anti-human CD40 ligand/TNFSF5 antibody, MAB617; MW≈150 kDa used) as positive control is shown in FIG. 1.
Binding inhibition assays with this system provided consistent and well-reproducible results, as FIG. 1 (bottom), focusing on the concentration range of their activities, illustrates. […] The effect of DMSO, which was used as the diluting solvent for the non-water-soluble compounds and is a standard solvent in HTS assays, on the integrity of the assay has been examined. DMSO concentrations above 10% interfere with the binding assay, but concentrations below 3% have no effect. […] Because 5 or 10 mM stock solutions were used, all IC50 values below 250 μM can be considered as unaffected by DMSO.

[1] = target: T2, mouse CD40/CD154 (mCD40:mCD154) (Mus musculus, UniProt P27548); experiment: Murine CD40/CD154 binding inhibition assay; settings: for pIC50: cell-free binding, read-out: Mouse CD40/CD154 IC50
T2 construct: (FLAG-tagged) mCD154 (recombinant mouse CD40L, soluble, Alexis Biochemicals); purchased R&D Systems (mCD40/Fc); Alexis Biochemicals (mCD154)
T2 sequence (P27548 112-260 limits assumed): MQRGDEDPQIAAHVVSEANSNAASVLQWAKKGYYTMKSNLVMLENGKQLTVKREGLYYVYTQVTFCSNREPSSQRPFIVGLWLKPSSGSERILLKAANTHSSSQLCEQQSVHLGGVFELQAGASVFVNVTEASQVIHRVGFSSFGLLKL
Procedure: Compounds of interest were also tested in a murine (mouse) model similar to the human one with murine CD40 and CD154 replacing the corresponding human proteins. This serves as additional confirmation of the in vitro inhibitory potential of these compounds, and it was considered important because mouse models are likely to be used as the first in vivo tests. […] The experimental setup used was similar to the one described above, but using mCD40 (recombinant mouse CD40/TNFRSF5/Fc Chimera, soluble, R&D Systems) and (FLAG-tagged) mCD154 (recombinant mouse CD40L, soluble, Alexis Biochemicals). This time, however, a higher concentration of CD154 ligand had to be employed to obtain adequate signals, and after a number of calibration tests, mCD40 coating at 0.3125 μg/mL with mCD154 (mCD40L) at 1.1212 μg/mL range was selected to be used to screen the inhibiting activity of various compounds.
The experiments confirmed that the murine anti-CD154 monoclonal antibody (Taconic, MR1) was active in this system at the expected concentration (˜1 nM range), the human antibody was not, and vice versa, the human mAb was active in the human system, but not in the mouse system. The mouse system provided a similar range of activity with some (up to approximately five-fold) changes in activities compared to that seen in the human system (FIG. 2) (Table 1).

[2] = cell-free binding, read-out: Human CD40/CD154 IC50 (ug/mL) (converted)

Sequence of human TNF-R1/TNFα (P01375 77-233 limits assumed): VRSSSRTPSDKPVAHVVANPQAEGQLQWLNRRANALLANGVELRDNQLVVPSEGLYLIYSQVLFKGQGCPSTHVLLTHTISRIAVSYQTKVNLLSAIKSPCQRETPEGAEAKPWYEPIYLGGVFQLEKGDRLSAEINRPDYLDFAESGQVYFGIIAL
Sequence of human TNF-R1/TNFα (P19438 30-211 limits assumed): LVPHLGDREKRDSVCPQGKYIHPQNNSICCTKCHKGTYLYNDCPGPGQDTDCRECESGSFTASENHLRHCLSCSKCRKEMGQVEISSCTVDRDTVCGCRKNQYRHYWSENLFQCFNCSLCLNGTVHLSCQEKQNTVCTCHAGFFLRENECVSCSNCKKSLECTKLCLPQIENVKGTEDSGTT

Structure (SMILES) | pIC50 (human TNF-R1/TNFα) | Human TNFR1/TNFα log IC50 (human TNF-R1/TNFα) | Human CD40/CD154 IC50 (human CD40/CD154; cell-free binding) [µg/mL] | pIC50 (human CD40/CD154; cell-free binding) | Human CD40/CD154 log IC50 (human CD40/CD154; log of IC50, cell-free binding) | pIC50 [1] | Mouse CD40/CD154 log IC50 ([1]; log of IC50, cell-free binding) | IC50 ([1]; log of IC50, cell-free binding, read-out: Mouse CD40/CD154 log IC50 (converted)) [µM] | IC50 (human CD40/CD154; [2]) [µM] | IC50 (human CD40/CD154; log of IC50, cell-free binding, read-out: Human CD40/CD154 log IC50 (converted)) [µM]
Nc1c(N=Nc2cccc([N+](=O)[O-])c2)c(S(=O)(=O)[O-])cc2cc(S(=O)(=O)[O-])c(N=Nc3ccccc3)c(O)c12.[Na+].[Na+] [Acid blue 29, acid blue 29] | 3.33 | −3.33 | 18.6 | 4.52 | −4.52 | – | – | – | – | –
COc1ccccc1NC(=O)C(N=Nc1ccc(-c2nc3ccc(C)c(S(=O)(=O)[O-])c3s2)cc1S(=O)(=O)[O-])C(C)=O.[Na+].[Na+] (centres unmarked) [Direct yellow 27, direct yellow 27] | 4.37 | −4.37 | 1.3 | 5.72 | −5.72 | – | – | – | – | –
O=S(=O)([O-])c1cc(S(=O)(=O)[O-])c2c(N=Nc3ccc(N=Nc4ccccc4)cc3)c(O)ccc2c1.[Na+].[Na+] [Brilliant crocein (crocein scarlet MOO), Brilliant crocein, reference compound] | – | – | 92.8 | 3.85 | −3.85 | 3.55 | −3.55 | – | – | –
O=C(Nc1ccc(C(=O)Nc2ccc(C(=O)Nc3ccc(S(=O)(=O)O)c4cc(S(=O)(=O)O)cc(S(=O)(=O)O)c34)cc2)cc1)Nc1ccc(C(=O)Nc2ccc(C(=O)Nc3ccc(S(=O)(=O)O)c4cc(S(=O)(=O)O)cc(S(=O)(=O)O)c34)cc2)cc1 [NF279] | 3.36 | – | – | 5.33 | – | 5.64 | – | 2.24 | 5.2 | –
Cc1cc(-c2ccc(/N=N/c3c(S(=O)(=O)O)cc4cc(S(=O)(=O)O)cc(N)c4c3O)c(C)c2)ccc1/N=N/c1c(S(=O)(=O)O)cc2cc(S(=O)(=O)O)cc(N)c2c1O [Trypan blue, trypan blue] | – | – | – | – | – | – | – | – | 4.24 | 3.8
Nc1cc(N)c(N=Nc2cccc3c(S(=O)(=O)O)cccc23)cc1N=Nc1cc([N+](=O)[O-])ccc1O.[Na] [Mordant brown 1, mordant brown 1] | 4.07 | −4.07 | 0.3 | 6.15 | −6.18 | – | – | – | – | –
Cc1ccc(S(=O)(=O)Oc2ccc(N=Nc3ccc(-c4ccc(N=Nc5c(O)ccc6cc(S(=O)(=O)[O-])cc(S(=O)(=O)[O-])c56)c(C)c4)cc3C)cc2)cc1.[Na+].[Na+] [Acid red 114, C.I. acid red 114] | 4.85 | −4.85 | 2.4 | 5.55 | −5.55 | – | – | – | – | –
Nc1ccc(N=Nc2ccc(-c3ccc(N=Nc4c(S(=O)(=O)[O-])cc5cc(S(=O)(=O)[O-])c(N=Nc6ccccc6)c(O)c5c4N)cc3)cc2)c(N)c1.[Na+].[Na+] [Chlorazol black (direct black 38), direct black 38] | – | – | 0.9 | 5.96 | −5.95 | – | – | – | – | –
